The subject of this assay is recombinant NL4-3 virus (Renilla luciferase) in MT-2 cells. Nature of the assay: HIV cell culture assay (antiviral activity, luciferase readout in infected MT-2 cells). It counts as cell-based. Summed up:
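EC50 derived via median-effect equation from luciferase activity in MT-2 cells after 4–5 day infection, compound serially diluted. Virus: recombinant NL4-3 with Renilla luciferase replacing part of nef, made in 293T cells.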

The mark [1] stands for this setting: Renilla, NL43, read-out: Activity, antiviral activity class, recombinant NL4-3 Renilla luciferase virus in MT-2 cells.
[2] abbreviates: Renilla, NL43, recombinant NL4-3 Renilla luciferase virus in MT-2 cells.
The mark [3] stands for this setting: recombinant NL4-3 Renilla luciferase virus in MT-2 cells, read-out: EC50.

Where two headings read alike, the source gives them in different places. Bounds are passed on as bounds.

`Cc1ccccc1S(=O)(=O)NC(=O)N[C@@H](Cc1cc(F)cc(F)c1)C(=O)N(C)c1cccc2ncccc12` [Example CA-109, (S)-3-(3,5-difluorophenyl)-N-methyl-N-(quinolin-5-yl)-2-(3-(o-tolylsulfonyl)ureido)propanamide]: the EC50 by setting is: under setting [1], 100 to 1000 nM; under setting [2], 370 nM. As for `Cc1ccccc1S(=O)(=O)NC(=O)N[C@@H](Cc1cc(F)cc(F)c1)C(=O)N(C)c1cccc2cnccc12` [Example CA-110, (S)-3-(3,5-difluorophenyl)-N-(isoquinolin-5-yl)-N-methyl-2-(3-(o-tolylsulfonyl)ureido)propanamide], under setting [1], the EC50 was 100 to 1000 nM.

Regarding `Cc1ccccc1S(=O)(=O)NC(=O)N[C@@H](Cc1cc(F)cc(F)c1)C(=O)N(C)c1cccc(Cl)c1` [Example CA-111, (S)—N-(3-chlorophenyl)-3-(3,5-difluorophenyl)-N-methyl-2-(3-(o-tolylsulfonyl)ureido)propanamide], the EC50 under setting [1] was 1000 to 10000 nM. In the case of `Cc1ccccc1S(=O)(=O)NC(=O)N[C@@H](Cc1cc(F)cc(F)c1)C(=O)N(C)c1ccc(F)cc1F` [Example CA-112, (S)—N-(2,4-difluorophenyl)-3-(3,5-difluorophenyl)-N-methyl-2-(3-(o-tolylsulfonyl)ureido)propanamide], the EC50 reads like this: under setting [1], 1000 to 10000 nM; under setting [2], 1290 nM. Turning to `COc1cc(N(C)C(=O)[C@H](Cc2ccccc2)NC(=O)NS(=O)(=O)c2ccccc2C)cc(OC)c1OC` [Example JB-82, (S)—N-methyl-3-phenyl-2-(3-(o-tolylsulfonyl)ureido)-N-(3,4,5-trimethoxyphenyl)propanamide], the EC50 under setting [1] was in the range of 1000 to 10000 nM. Take `COc1ccc(N(C)C(=O)[C@H](Cc2ccccc2)NC(=O)NS(=O)(=O)c2ccccc2C)c(C)c1` [Example JB-83, (S)—N-(4-methoxy-2-methylphenyl)-N-methyl-3-phenyl-2-(3-(o-tolylsulfonyl)ureido)propanamide]: the EC50 under setting [1] is 100 to 1000 nM. Consider `COc1cc(C)c(N(C)C(=O)[C@H](Cc2ccccc2)NC(=O)NS(=O)(=O)c2ccccc2C)cc1C` [Example JB-84, (S)—N-(4-methoxy-2,5-dimethylphenyl)-N-methyl-3-phenyl-2-(3-(o-tolylsulfonyl)ureido)propanamide], for which the EC50 under setting [1] is 100 to 1000 nM.

Turning to `COc1ccc(N(C)C(=O)[C@H](Cc2ccccc2)NC(=O)NS(=O)(=O)c2c(C)n(C)c3ccccc23)cc1` [Example JB-85, (S)-2-(3-((1,2-dimethyl-1H-indol-3-yl)sulfonyl)ureido)-N-(4-methoxyphenyl)-N-methyl-3-phenylpropanamide], the EC50 under setting [1] lay within 100 to 1000 nM. With `COc1ccc(N(Cc2ccccc2)C(=O)[C@H](Cc2ccccc2)NC(=O)NS(=O)(=O)c2ccccc2C)cc1` [Example ZY-3, (S)—N-benzyl-N-(4-methoxyphenyl)-3-phenyl-2-(3-(o-tolylsulfonyl)ureido)propanamide], the EC50 under setting [1] fell in the range of 1000 to 10000 nM and the EC50 under setting [2] came to 3610 nM. As to `COc1ccc(N(Cc2ccncc2)C(=O)[C@H](Cc2ccccc2)NC(=O)NS(=O)(=O)c2ccccc2C)cc1` [Example ZY-4, (S)—N-(4-methoxyphenyl)-3-phenyl-N-(pyridin-4-ylmethyl)-2-(3-(o-tolylsulfonyl)ureido)propanamide], the EC50 under setting [1] was in the range of 1000 to 10000 nM. Consider `COc1ccc(N(CCc2ccccc2)C(=O)[C@H](Cc2ccccc2)NC(=O)NS(=O)(=O)c2ccccc2C)cc1` [Example ZY-5, (S)—N-(4-methoxyphenyl)-N-phenethyl-3-phenyl-2-(3-(o-tolylsulfonyl)ureido)propanamide], for which the EC50 by setting is: under setting [1], 10000 to 100000 nM; under setting [2], 11400 nM. Turning to `COc1ccc(N(CC(C)C)C(=O)[C@H](Cc2ccccc2)NC(=O)NS(=O)(=O)c2ccccc2C)cc1` [Example ZY-6, (S)—N-isobutyl-N-(4-methoxyphenyl)-3-phenyl-2-(3-(o-tolylsulfonyl)ureido)propanamide], under setting [1], the EC50 lay within 1000 to 10000 nM. Consider `Cc1ccccc1S(=O)(=O)NC(=O)N[C@@H](Cc1cc(F)cc(F)c1)C(=O)N(C)c1ccc2scnc2c1` [Example ZY-7, (S)—N-(benzo[d]thiazol-5-yl)-3-(3,5-difluorophenyl)-N-methyl-2-(3-(o-tolylsulfonyl)ureido)propanamide], for which, under setting [1], the EC50 was < 100 nM. Take `CN(C(=O)[C@H](Cc1cc(F)cc(F)c1)NC(=O)NS(=O)(=O)c1ccccc1Cl)c1ccc2scnc2c1` [Example ZY-13, (S)—N-(benzo[d]thiazol-5-yl)-2-(3-((2-chlorophenyl)sulfonyl)ureido)-3-(3,5-difluorophenyl)-N-methylpropanamide]: the EC50 was < 100 nM under setting [1] and 30 nM under setting [2]. For the molecule `CN(C(=O)[C@H](Cc1cc(F)cc(F)c1)NC(=O)NS(=O)(=O)c1cc(F)ccc1F)c1ccc2scnc2c1` [Example ZY-14, (S)—N-(benzo[d]thiazol-5-yl)-3-(3,5-difluorophenyl)-2-(3-((2,5-difluorophenyl)sulfonyl)ureido)-N-methylpropanamide], the EC50 under setting [1] is 100 to 1000 nM.

Consider `CN(C(=O)[C@H](Cc1cc(F)cc(F)c1)NC(=O)NS(=O)(=O)c1ccccc1F)c1ccc2scnc2c1` [Example ZY-16, (S)—N-(benzo[d]thiazol-5-yl)-3-(3,5-difluorophenyl)-2-(3-((2-fluorophenyl)sulfonyl)ureido)-N-methylpropanamide], for which the EC50 under setting [1] was < 100 nM. On the same count and under the same terms, the same measure for `CN(C(=O)[C@H](Cc1cc(F)cc(F)c1)NC(=O)NS(=O)(=O)c1ccc(F)cc1F)c1ccc2scnc2c1` [Example ZY-17, (S)—N-(benzo[d]thiazol-5-yl)-3-(3,5-difluorophenyl)-2-(3-((2,4-difluorophenyl)sulfonyl)ureido)-N-methylpropanamide]: 100 to 1000 nM. Consider “(S)-2-(3-([1,1′-biphenyl]-2-ylsulfonyl)ureido)-N-(benzo[d][1,3]dioxol-5-yl)-N-methyl-3-phenylpropanamide [Example 48]”, for which, under “antiviral activity class, recombinant NL4-3 Renilla luciferase virus in MT-2 cells, read-out: Activity”, the EC50 lay within 1000 to 10000 nM. As to “(S)—N-((1-(3,3-dimethylazetidin-1-yl)-1-oxo-3-phenylpropan-2-yl)carbamoyl)-2-methylbenzenesulfonamide [Example 191]”, the EC50 under setting [3] is > 100000 nM. As for “(S)—N-((1-(3-methoxyazetidin-1-yl)-1-oxo-3-phenylpropan-2-yl)carbamoyl)-2-methylbenzenesulfonamide [Example 190]”, the EC50 under setting [3] is > 100000 nM.

The record behind these values is patent publication US10035760B2, “Inhibitors of human immunodeficiency virus replication” (priority 2013, dated 2018).
